Experiments:
[1] = system: antibodies in sera from SARS patients (sera 1a, 1b, 2, 6, 37, 62, London, SARS-yellow, SARS-green); assay type: binding, human; set-up: Binding of serum 6 to linear peptides of protein X1 of SARS-CoV Urbani / Binding of serum 37 to linear peptides of protein X1 of SARS-CoV Urbani / Binding of serum 6 to looped/cyclic peptide (PEPSCAN-ELISA) / Binding of serum 37 to looped/cyclic peptide (PEPSCAN-ELISA) / Binding of serum 37 to looped/cyclic peptides of protein X1 of SARS-CoV Urbani / Binding of serum 6 to linear peptides of protein X2 / Binding of serum 37 to linear peptides of protein X2 / Binding of serum 37 to looped/cyclic peptides of protein X2 of SARS-CoV Urbani / Binding of serum 6 to linear peptides of protein M of SARS-CoV Urbani / Binding of serum 37 to linear peptides of protein M of SARS-CoV Urbani / Binding of serum 6 to looped/cyclic peptides of protein M of SARS-CoV Urbani / Binding of serum 37 to looped/cyclic peptides of protein M of SARS-CoV Urbani / Binding of serum 6 to linear peptides of protein X3 of SARS-CoV Urbani / Binding of serum 37 to linear peptides of protein X3 of SARS-CoV Urbani / Binding of serum 37 to looped/cyclic peptides of protein X3 of SARS-CoV Urbani / Binding of serum 6 to linear peptides of protein X4 of SARS-CoV Urbani / Binding of serum 37 to linear peptides of protein X4 of SARS-CoV Urbani / Binding of serum 37 to looped/cyclic peptides of protein X4 of SARS-CoV Urbani / Binding of serum 6 to linear peptides of protein X5 of SARS-CoV Urbani / Binding of serum 37 to linear peptides of protein X5 of SARS-CoV Urbani / Binding of serum 37 to looped/cyclic peptides of protein X5 of SARS-CoV Urbani / Binding of serum 6 to linear peptides of protein N of SARS-CoV Urbani / Binding of serum 37 to linear peptides of protein N of SARS-CoV Urbani / Binding of serum 6 to linear peptide (PEPSCAN-ELISA) / Binding of serum 1a to looped/cyclic peptides of protein N of SARS-CoV Urbani / Binding of serum 1b to looped/cyclic peptides of protein N of SARS-CoV Urbani / Binding of serum 2 to looped/cyclic peptides of protein N of SARS-CoV Urbani / Binding of serum 6 to looped/cyclic peptides of protein N of SARS-CoV Urbani / Binding of serum 37 to looped/cyclic peptides of protein N of SARS-CoV Urbani / Binding of serum 62 to looped/cyclic peptides of protein N of SARS-CoV Urbani / Binding of serum London to looped/cyclic peptides of protein N of SARS-CoV Urbani / Binding of serum SARS-green to looped/cyclic peptides of protein N of SARS-CoV Urbani: unit not given here
[2] = system: control sera (pooled serum of ten healthy LUMC hospital workers; commercial negative donor pooled serum from the Dutch bloodbank); assay type: binding, human; set-up: Binding of Control serum LUMC to linear peptides / Binding of Control serum Blood-bank to linear peptides / Binding of Control serum LUMC to looped peptides / Binding of Control Serum Blood-Bank to Looped peptides / Binding of Control serum LUMC to linear peptides of the protein M of SARS-CoV Urbani / Binding of Control serum Blood-bank to linear peptides of the protein M of SARS-CoV Urbani / Binding of Control serum LUMC to looped peptides of the protein M of SARS-CoV Urbani / Binding of Control Serum Blood-Bank to Looped peptides of the protein M of SARS-CoV Urbani: unit not given here
[3] = system: rabbit serum obtained by immunizing a rabbit with the SARS-CoV strain Frankfurt 1; assay type: binding; set-up: Binding of a rabbit serum to linear peptides / Binding of a rabbit serum to looped peptides / Rabbit serum linear peptides / Rabbit serum looped peptides / Binding of a rabbit serum to linear peptides of protein N of SARS-CoV Urbani (Rabbit serum linear peptides) / Binding of a rabbit serum to looped/cyclic peptides of protein N of SARS-CoV Urbani (Rabbit serum looped peptides): unit not given here

With LQELLIQQWIQFMMS the “Binding of serum 1a to linear peptides of protein X2” value [1] was 0.7, the “Binding of serum 1a to looped/cyclic peptides of protein X2 of SARS-CoV Urbani” value [1] was 0.6 and the “Binding of serum 1b to linear peptides of protein X2” value [1] was 0.6. For the same sequence, the “Binding of serum 1b to looped/cyclic peptides of protein X2 of SARS-CoV Urbani” value [1] was 0.5, the “Binding of serum 2 to linear peptides of protein X2” value [1] was 0.3 and the “Binding of serum 2 to looped/cyclic peptides of protein X2 of SARS-CoV Urbani” value [1] was 0.3. For the same sequence, the “Binding of serum 6 to linear peptides of protein X2” value [1] was 0.3, the “Binding of serum 6 to looped/cyclic peptides of protein X2 of SARS-CoV Urbani” value [1] was 0.2 and the “Binding of serum 37 to linear peptides of protein X2” value [1] was 0.5. For the same sequence, the “Binding of serum 37 to looped/cyclic peptides of protein X2 of SARS-CoV Urbani” value [1] was 0.4, the “Binding of serum 62 to linear peptides of protein X2” value [1] was 0.5 and the “Binding of serum 62 to looped/cyclic peptides of protein X2 of SARS-CoV Urbani” value [1] was 0.6. For the same sequence, the “Binding of serum London to linear peptides of protein X2” value [1] was 0.4, the “Binding of serum London to looped/cyclic peptides of protein X2 of SARS-CoV Urbani” value [1] was 0.2 and the “Binding of serum SARS-green to linear peptides of protein X2” value [1] was 0.5. The “Binding of serum SARS-green to looped/cyclic peptides of protein X2 of SARS-CoV Urbani” value [1] was 0.2, the “Binding of serum SARS-yellow to linear peptides of protein X2” value [1] was 0.6 and the “Binding of serum SARS-yellow to looped/cyclic peptides of protein X2 of SARS-CoV Urbani” value [1] was 0.3. The “Binding of Control Serum Blood-Bank to Looped peptides” value [2] was 0.6, the “Binding of Control serum Blood-bank to linear peptides” value [2] was 0.5 and the “Binding of Control serum LUMC to linear peptides” value [2] was 0.3. The “Binding of Control serum LUMC to looped peptides” value [2] was 0.6, the “Binding of a rabbit serum to linear peptides” value [3] was 0.3 and the “Binding of a rabbit serum to looped peptides” value [3] was 0.3.
For LRARSVSPKLFIRQE, the “Binding of serum 1a to linear peptides of protein X4 of SARS-CoV Urbani” value [1] was 0.7, the “Binding of serum 1a to looped/cyclic peptides of protein X4 of SARS-CoV Urbani” value [1] was 0.8 and the “Binding of serum 1b to linear peptides of protein X4 of SARS-CoV Urbani” value [1] was 0.6. The “Binding of serum 1b to looped/cyclic peptides of protein X4 of SARS-CoV Urbani” value [1] was 0.6, the “Binding of serum 2 to linear peptides of protein X4 of SARS-CoV Urbani” value [1] was 0.5 and the “Binding of serum 2 to looped/cyclic peptides of protein X4 of SARS-CoV Urbani” value [1] was 0.6. For the same sequence, the “Binding of serum 6 to linear peptides of protein X4 of SARS-CoV Urbani” value [1] was 0.8, the “Binding of serum 6 to looped/cyclic peptides of protein X4 of SARS-CoV Urbani” value [1] was 0.8 and the “Binding of serum 37 to linear peptides of protein X4 of SARS-CoV Urbani” value [1] was 0.7. For the same sequence, the “Binding of serum 37 to looped/cyclic peptides of protein X4 of SARS-CoV Urbani” value [1] was 0.7, the “Binding of serum 62 to linear peptides of protein X4 of SARS-CoV Urbani” value [1] was 0.8 and the “Binding of serum 62 to looped/cyclic peptides of protein X4 of SARS-CoV Urbani” value [1] was 0.7. The “Binding of serum London to linear peptides of protein X4 of SARS-CoV Urbani” value [1] was 0.8, the “Binding of serum London to looped/cyclic peptides of protein X4 of SARS-CoV Urbani” value [1] was 0.4 and the “Binding of serum SARS-green to linear peptides of protein X4 of SARS-CoV Urbani” value [1] was 0.6. The “Binding of serum SARS-green to looped/cyclic peptides of protein X4 of SARS-CoV Urbani” value [1] was 0.6, the “Binding of serum SARS-yellow to linear peptides of protein X4 of SARS-CoV Urbani” value [1] was 0.3 and the “Binding of serum SARS-yellow to looped/cyclic peptides of protein X4 of SARS-CoV Urbani” value [1] was 0.7. The “Binding of Control Serum Blood-Bank to Looped peptides” value [2] was 0.6, the “Binding of Control serum Blood-bank to linear peptides” value [2] was 0.6 and the “Binding of Control serum LUMC to linear peptides” value [2] was 0.6. For the same sequence, the “Binding of Control serum LUMC to looped peptides” value [2] was 0.7 and the “Recognition of the peptide by the rabbit serum” value [3] was “recognized”.
LRGTIVTRPLMESEL was tested, and the “Binding of serum 1a to linear peptides of protein M of SARS-CoV Urbani” value [1] was 0.7, the “Binding of serum 1b to linear peptides of protein M of SARS-CoV Urbani” value [1] was 0.5 and the “Binding of serum 2 to linear peptides of protein M of SARS-CoV Urbani” value [1] was 0.3. The “Binding of serum 6 to linear peptides of protein M of SARS-CoV Urbani” value [1] was 0.3, the “Binding of serum 37 to linear peptides of protein M of SARS-CoV Urbani” value [1] was 0.5 and the “Binding of serum 62 to linear peptides of protein M of SARS-CoV Urbani” value [1] was 0.4. For the same sequence, the “Binding of serum London to linear peptides of protein M of SARS-CoV Urbani” value [1] was 0.3, the “Binding of serum SARS-green to linear peptides of protein M of SARS-CoV Urbani” value [1] was 0.4 and the “Binding of serum SARS-yellow to linear peptides of protein M of SARS-CoV Urbani” value [1] was 1.0. For the same sequence, the “Recognition of the peptide by sera of SARS-CoV infected individuals, and form (linear, looped/cyclic) in which it is recognized” value [1] was “recognized in looped/cyclic form”, the “Binding of Control Serum Blood-Bank to Looped peptides of the protein M of SARS-CoV Urbani” value [2] was 0.7 and the “Binding of Control serum Blood-bank to linear peptides of the protein M of SARS-CoV Urbani” value [2] was 0.5. The “Binding of Control serum LUMC to linear peptides of the protein M of SARS-CoV Urbani” value [2] was 0.5, the “Binding of Control serum LUMC to looped peptides of the protein M of SARS-CoV Urbani” value [2] was 0.7 and the “Rabbit serum linear peptides” value [3] was 0.0. The “Rabbit serum looped peptides” value [3] was 0.5.

Reference: patent US20070128217A1 (priority 2003, published 2007)
